Assays:
[1] = tested on: black sigatoka; assay: Black sigatoka on banana plants, single leaf test, leaf 1 preventive, DITHANE 60 SC; type: in vivo; conditions: for Area infected (%) / Efficacy: 23 DAA, leaf 1 preventive, DITHANE 60 SC 5 liter/ha; for Area infected (%): phosphites 2 mol/l at 3 liter/ha; for Efficacy: vs untreated control
Method: (§1) A single leaf test was established in a research station located in the community of “Anita Grande,” county of Jimenez, province of Limon, Costa Rica (latitude 10°15′14.15″N, longitude 83°44′20.29″W).
(§2) Every treatment was established in individual plants. Treatments were applied to leaf number 1 to determine their effect as preventive. Leaf position is counted from top to bottom, whereby leaf number 1 is closest to the unfolded leaf. Treatments were distributed systematically to facilitate their location in the field.
(§3) Product applications were done in an area of 10×10 cm, with a special equipment designed to simulate aerial applications. Application was done at 35 pound-force per square inch. Since weather conditions were highly conducive for disease development, and inoculum density was very high, no artificial inoculation was done. All treatments were applied to the same position on the leaf to minimize experimental error. All treatments were applied at the equivalent volume of 25 L ha^−1, as it is done commercially. A total of 3 sprays were applied, application A at Day 0, application B at 7 days after application A (DAA), and application C at day 13 DAA. VOLLEY® 88 OL was sprayed at 5.525 L/ha and the different phosphites were applied at the same PO3 concentration of 2 mol/l and were sprayed at 3 liter/ha.
(§4) For the evaluation of the efficacy, the diseased area that was affected in the 10×10 cm leaf area was recorded. Evaluations were done 23, 30 and 36 DAA. Efficacy was calculated by comparing the treatments against the untreated control.
Similar to Example 8, with the following differences: DITHANE® 60 SC (Dow AgroSciences) at a rate of 5 liter/ha was applied instead of […] and only one measurement was performed at 23 days after application A (DAA).

[2] = tested on: black sigatoka; assay: Black sigatoka on banana plants, single leaf test, leaf 3 curative, Bravo 72 SC; type: in vivo; conditions: for Area infected (%) / Efficacy: 16 DAA, leaf 3 curative, Bravo 72 SC 0.875 liter/ha, phosphites 3 L/ha; for Efficacy: vs untreated control
Method: as §1, §2, §3, §4
Similar to Example 9, with the following differences: Treatments and measurements were applied to leaf number 3, to determine their effect as curative, and one measurement was performed at 8 days after application A (DAA).
Similar to Example 10, with the following differences: Bravo 72 SC (chlorothalonil; Syngenta) was applied at 0.875 liter/ha instead of DITHANE® 60 SC and the phosphites were spayed at a rate of 3 L/ha. One measurement was done at 16 DAA.

[3] = tested on: powdery mildew; assay: Powdery mildew on cucumber leaf disks; type: in vivo; conditions: for Surface area (%): phosphite 16 mM, sulfur 0.1 g/L
Method: Leaves were taken from 5 to 6 week old tomato plant. Per treatment 5 ml was sprayed over 5 leaves and dried for 1 hour. Circular disks were punched from the treated leaves with a diameter of 11 mm. 5 disks per treatment were put on water agar in 90 mm ø petri dishes. Water agar was made by sterilizing agar-agar (5 g/L, Carl Roth), benzimidazole (30 mg/L, Sigma-Aldrich) and antibiotic tetracycline hydrochloride (25 mg/L, Carl Roth) in water. Disks were infected by brushing powdery mildew spores from an infected leave until disks were visually covered by spores. After 10 days the surface area covered by powdery mildew was measured by putting pictures of the disks through an online image analyzer. Efficacy was calculated by comparing the treatments against the untreated control. Replicates: 20 disks were used per treatment.
All phosphite concentrations were tested at a concentration of 16 mM of phosphite.
Similar to Example 7 with the following differences: Leaf disk were taken from the dicotyledon leaves when the cucumber was around 2 weeks old. 5 disks per treatment were put on water agar in 90 mm ø petri dishes, with a total of 10 leaf disks per treatment. The formulated sulfur was tested at a concentration of 0.1 g sulfur/L. Assessment was done after 14 and 21 days after infection.

[4] = tested on: Plasmopara viticola; assay: Downy mildew on grapevine plants in greenhouse, phosphites and REVUS; type: in vivo; conditions: conclusion from Table 5
Method: The trial was conducted with young plants of grapevine cultivar MERLOT in a greenhouse. […] Treatments were applied twice, once when 3 to 4 leaves were unfolded and the second application 10 days later. […] Inoculation of the plants with the pathogen Plasmopara viticola was performed 4 days after the second application. The suspension of the spores in water was prepared at the concentration of 20,000 to 40,000 spores/ml. All foliage ware inoculated. The different phosphites were applied at the same molar concentration of phosphite. With the high phosphite treatments, a concentration of 1.50 1 of a 2 M solution/100 1 was used and with the low phosphite treatment a concentration of 0.75 1 of a 2 M solution/100 1. […] An assessment on incidence and severity was performed 21 and 28 days after the second application. Efficacy was calculated for severity in comparison to untreated control infected.

[5] = tested on: Plasmopara viticola; assay: Downy mildew on grapevine plants in greenhouse, phosphites and DITHANE Neotec; type: in vivo; conditions: for Incidence: 21 days after the second treatment application, phosphite 1.50 l of 2 M solution/100 l, DITHANE Neotec 0.05 kg/100 liter water
Method: The trial was conducted with young plants of grapevine cultivar MERLOT in a greenhouse. Treatments were applied twice, once when 3 to 4 leaves were unfolded and the second application 10 days later. Each treatment had 4 plots as replications. The experimental set up was completely randomized and each plot had 3 plants. Inoculation of the plants with the pathogen Plasmopara viticola was performed 4 days after the second application. The suspension of the spores in water was prepared at the concentration of 20,000 to 40,000 spores/ml. All foliage ware inoculated. The different phosphites were applied at the same molar concentration of phosphite. With the high phosphite treatments, a concentration of 1.50 1 of a 2 M solution/100 1 was used and with the low phosphite treatment a concentration of 0.75 1 of a 2 M solution/100 1. […] An assessment on incidence and severity was performed 21 and 28 days after the second application. Efficacy was calculated for severity in comparison to untreated control infected. Similar to Example 5, with the following amendments: […] One measurement was performed at 21 days after the second application.

[6] = tested on: grapevine plants; assay: Phytotoxicity on grapevine plants; design: species or system grapevine cultivar MERLOT; conditions: in vivo
Method: Treatments were applied twice, once when 3 to 4 leaves were unfolded and the second application 10 days later. […] The experimental set up was completely randomized and each plot had 3 plants. Inoculation of the plants with the pathogen Plasmopara viticola was performed 4 days after the second application. The suspension of the spores in water was prepared at the concentration of 20,000 to 40,000 spores/ml. All foliage ware inoculated. The different phosphites were applied at the same molar concentration of phosphite. With the high phosphite treatments, a concentration of 1.50 1 of a 2 M solution/100 1 was used and with the low phosphite treatment a concentration of 0.75 1 of a 2 M solution/100 1. REVUS® was used with a standard concentration of 0.015 liter/100 liter. An assessment on incidence and severity was performed 21 and 28 days after the second application. Efficacy was calculated for severity in comparison to untreated control infected.

N.N.O=[PH](O)O [(NH4)2HPO3]
Area infected (%) [1]: 8.0%
Efficacy [1]: 57.9
Area infected (%) [2]: 51.0%
Efficacy [2]: 28.2
Surface area (%) ([3]; Day 14 after infection): 7.21%
Surface area (%) ([3]; Day 21 after infection): 5.61%

disodium hydrogen phosphite [Na2HPO3]
Increase of the fungal efficacy of REVUS compared with other phosphite salts [4]: increases the fungal efficacy of REVUS® the best
Incidence [5]: 10.0
Increase of the fungal efficacy of DITHANE Neotec compared with other phosphite salts ([5]; conclusion from Table 6): increases the fungal efficacy of DITHANE® Neotec the best
Area infected (%) [1]: 12.6%
Efficacy [1]: 33.7
Increase of the fungal efficacy of DITHANE 60 SC compared with other phosphite salts ([1]; conclusion from Table 9, preventive): increases the fungal efficacy of DITHANE® 60 SC the best
Area infected (%) [2]: 68.0%
Efficacy [2]: 4.2
Increase of the fungal efficacy of Bravo 72 SC compared with other phosphite salts ([2]; conclusion from Table 11): increases the fungal efficacy of Bravo 72 SC the best
Surface area (%) ([3]; Day 14 after infection): 9.15%
Surface area (%) ([3]; Day 21 after infection): 7.38%
Increase of the fungal efficacy of sulfur compared with other phosphite salts ([3]; conclusion from Table 12): increases the fungal efficacy of sulfur the best
Phytotox (%) [6]: 0%

O=[PH]([O-])[O-].[K+].[K+] [Treatment K2HPO3]
Incidence [5]: 5.0
Area infected (%) [1]: 10.6%
Efficacy [1]: 44.2
Area infected (%) [2]: 68.0%
Efficacy [2]: 4.2
Surface area (%) ([3]; Day 14 after infection): 5.18%
Surface area (%) ([3]; Day 21 after infection): 4.84%
